Results from patent publication US20120264810A1, “COMPOSITIONS AND METHODS FOR ENHANCING CELLULAR UPTAKE AND INTRACELLULAR DELIVERY OF LIPID PARTICLES” (The University of British Columbia, priority 2009, published 2012).
Counter-ions that a name gives are not always drawn.

Tested on: Raw264.7 cells
Assay: Drug screen and titration: siRNACy3-LN uptake and punctate distribution (Cellomics ArrayScan)
Format: cell-based, mouse
Details: for Normalized Punctate Distribution / Normalized siRNA Uptake: 10 μg/mL siRNACy3 in DLinDMA LN, ~10 μM drug, 24 h; for Normalized Punctate Distribution: normalized to absence of drug; for Normalized siRNA Uptake: total Cy3 intensity normalized to absence of drug; for punctate / cytosolic distribution of siRNACy3 in titration study: drug 0-30 μM, 10 μg/mL siRNACy3-LN; for increase in siRNACy3 accumulation: drug at 30 μM, 10 μg/mL siRNACy3 in DLinDMA LNs, normalized to no drug
Protocol: (§1) Cells were fixed with 3% paraformaldehyde in PBS in the presence of Hoescht for 15 minutes. Cells were rinsed and stored in PBS supplemented with calcium chloride and magnesium sulfate. Plates were scanned and analyzed with the Cellomics ArrayScan VTI.
as §1

SMILES | Normalized Punctate Distribution | Normalized siRNA Uptake | punctate / cytosolic distribution of siRNACy3 in titration study | increase in siRNACy3 accumulation
CC(=O)c1ccc(S(=O)(=O)NC(=O)NC2CCCCC2)cc1 [Acetohexamide] | 1.48 | 1.32 |  | 
Nc1nc(O)c2[nH]nnc2n1 [Azaguanine-8] | 0.07 | 0.54 |  | 
C[N+]1(C)CCC(=C(c2ccccc2)c2ccccc2)CC1 [Diphemanil methylsulfate] | 0.34 | 0.70 | only showed enhanced cytosolic distribution of siRNACy3 at 30 μM | 
Cn1c(=O)c2c(ncn2CC(O)CO)n(C)c1=O (stereo not drawn) [Diprophylline] | 1.55 | 1.38 |  | Approximately 2 fold
CC(=O)OCC(=O)[C@@]1(O)CC[C@H]2[C@@H]3CCC4=CC(=O)C=C[C@]4(C)[C@@]3(F)[C@@H](O)C[C@@]21C [Isoflupredone acetate] | 0.07 | 0.50 |  | 
Cc1cc(NC(=O)C2=C(O)c3ccccc3S(=O)(=O)N2C)no1 [Isoxicam] | 1.53 | 1.42 |  | ~3 fold
CC(COc1ccccc1)NC(C)C(O)c1ccc(O)cc1 (stereo not drawn) [Isoxsuprine HCl, isoxsuprine hydrochloride] | 0.33 | 0.51 |  | 
N[C@@H](Cc1ccc(O)c(O)c1)C(=O)O [Levodopa] | 1.43 | 1.28 |  | 
c1ccc2c(CC3=NCCN3)cccc2c1 [Naphazoline HCl, naphazoline hydrochloride] | 1.49 | 1.32 |  | 
COc1cc(C(=O)NCc2ccc(OCCN(C)C)cc2)cc(OC)c1OC [Trimethobenzamide HCl, Trimethobenzamide hydrochloride] | 0.31 | 0.70 | increased punctate distribution of siRNACy3 with increasing drug concentration | 
